Reference: patent publication US8912355B2, “Linoleic phospholipids and uses thereof for inhibiting inflammatory and neurodegenerative processes” (University of Ottawa Heart Institute, priority 2009, dated 2014)
Entries after “also recorded” stand apart in the source; their conditions may differ.

How the values were obtained:
NF-κB [1] = test: TNFα-induced NF-κB phosphorylation in SH-SY5Y cells, Western blot; type: cell-based, human
Method: (§1) Cells and Cell Culture—Human neuroblastoma (SH-SY5Y) cells were obtained from American Type Cell Culture (ATCC Number CRL-2266; Manassas, Va., USA). SH-SY5Y was cultured and maintained in F12:DMEM (1:1, v/v) media condition with 10% FBS and 1% penicillin/streptomycin in a 37° C./5% CO2 exchange condition. Passages 3-10 were used in the present study and confluent cells were subjected to stimulation with drugs for indicated times under serum-starved conditions.
(§2) Preparation of Phospholipid Vesicles—Phospholipid Vesicles in Phosphate-Buffered saline (PBS; 1 mg/mL) were prepared by sonication as previously described (8). Briefly, pure dilinoeoylphosphatidylcholine (DLPC) in chloroform was dried down under N2 and 1 mL of PBS was added by vortexing. The mix was then sonicated (Branson sonicator set at 100% duty cycle and 10% power) for 1 min. The sonicated preparation was incubated for 30 min at 37° C. in a water bath, and samples were resonicated for 5 min at 95% duty cycle and 10% power and filtered before use.
(§3) Western Blot Analysis—After incubation with drugs for the indicated times and doses, cells were washed twice with ice-cold PBS-T on ice. Cells were lysed by adding buffer [NaF 1 mmol/L, NaCl 5 mmol/L, EDTA 1 mmol/L, NP40 1 mmol/L (Roche Diagnostics, Indianapolis, Ind.), HEPES 10 mmol/L, pepstatin A 1 mg/mL, leupeptin 1 mg/mL, aprotinin 1 mg/mL, Na3VO4 1 mmol/L, and PMSF 1 mmol/L] and total protein was extracted. An equal amount of cell proteins were separated by 12% SDS-PAGE and were analyzed by Western blot using specific antibodies to TNFα, Aβ, APP, phospho-ERK1/2, ERK1/2, phospho-tau, tau, phospho-IκBα, IκBα, phospho-NF-κB and NF-κB. Blots for the similar experiments were also subjected to β-actin for a loading control. Band intensity was analyzed with the Alpha-Innotech Fluor Chem™ HD Imager.
The effect of a selective MAPK inhibitor, U0126, on a TNFα induction of MAPK and nuclear factor kappa B (NF-κB) was evaluated. […] TNFα induced a 3-fold increase in NF-κB phosphorylation in SH-SY5Y cells at 5 min after treatment (FIG. 4). DLPC blocked the increase in neuronal NF-κB phosphorylation by ˜50% over 5-30 min post treatment with TNFα.

amyloid-β = test: Amyloid-β secretion into conditioned media of SH-SY5Y cells, Western blot; type: cell-based, human
Method: SH-SY5Y cells were pretreated with DLPC (12 μM) for 30 minutes and then incubated with LPS (100 ng/mL) for 24 h. Conditioned media from each experiment were collected and subjected to Western blot analysis for amyloid-β. Loading volumes were adjusted relative to total cell protein. Histograms representing densitometry analysis of amyloid-(3 and are expressed as mean±SEM of at least 3 independent experiments. *P<0.001 vs control and **P<0.001 vs LPS alone.
as §1, with “conditions. […]” for “conditions.”
Aβ quantification—Aβ immuno-quantification was performed in conditioned media after incubation with the inhibitors/agonists and/or phospholipids for the indicated times and doses. […] Band intensities were analyzed using the Spot-densitometer application of the AlphaEaseFC software and values were corrected with total cell proteins in cell lysates. […] Total protein concentration was determined using the BCA protein assay (Pierce, Rockford, Ill.) in cell lysate. […]

ERK1/2 = test: TNFα- or H2O2-induced ERK1/2 (MAPK) phosphorylation in SH-SY5Y cells, Western blot; type: cell-based, human; conditions: for TNFα-induced ERK1/2 phosphorylation: TNFα 10 ng/ml
Method: as §1, §2, §3
Experiments were undertaken to determine if DLPC can block a tumor necrosis factor (TNFα) activation of MAPK in neuroblastoma cells. […]

Kupffer cells = Kupffer cells of ethanol-fed rats; cited from earlier work
NF-κB [2] = test: LPS- or TNFα-induced NF-κB phosphorylation in HepG2 cells, Western blot; type: cell-based, human; conditions: for TNFα-induced activation of NF-κB (p-NF-κB): DLPC 12 μmol/L, DOPC 12 μmol/L or LA 25 μmol/L for 30 min, TNFα 10 ng/ml, 5 min
Method: HepG2 cells were pre-incubated with DLPC (12 μM) for 30 min. and then incubated with LPS (5 μg/ml) for 24 h in DMEM serum-depleted media. Phospho-IκBα and phospho-NF-kB (p-IκBα and p-NF-κB) expression were analyzed by Western blot.
as §3, with “Blots for the similar experiments were also subjected to β-actin for a loading control.” left out

IκBα [3] = test: TNFα-induced IκBα phosphorylation and degradation in SH-SY5Y cells, Western blot; type: cell-based, human; conditions: TNFα 10 ng/ml
Method: as §3, with “Blots for the similar experiments were also subjected to β-actin for a loading control.” left out

TNFα = test: LPS-induced TNFα expression in HepG2 cells, Western blot; type: cell-based, human; conditions: DLPC 12 μmol/L 30 min, LPS 5 μg/ml, 24 h
Method: (§4) HepG2 cells were pre-incubated with DLPC (12 μmol/L) for 30 min and then incubated with LPS (5 μg/ml) for 24 h in DMEM serum-depleted media. Cell lysates were analyzed for TNFα expression by Western blot. Values are presented relative to β-actin and are expressed as mean±SEM for 3 replicate experiments. *P<0.05 vs LPS alone.
as §3

IκBα [4] = test: LPS-induced IκBα phosphorylation in HepG2 cells, Western blot; type: cell-based, human; conditions: DLPC 12 μM 30 min, LPS 5 μg/ml, 24 h
Method: HepG2 cells were pre-incubated with DLPC (12 μM) for 30 min. and then incubated with LPS (5 μg/ml) for 24 h in DMEM serum-depleted media. Phospho-IκBα and phospho-NF-kB (p-IκBα and p-NF-κB) expression were analyzed by Western blot. Histograms represent densitometry analysis of p-IκBα (A) and p-NF-κB (B) and values are shown relative to β-actin and are expressed as mean±SEM of 3 replicate experiments. *P<0.05 vs LPS alone.
as §3

[5] = system: amyloid precursor protein (APP); test: Basal amyloid precursor protein expression in SH-SY5Y cells, Western blot; type: cell-based, human; conditions: unstimulated SH-SY5Y; DLPC 12 μM, 24 h
Method: SH-SY5Y cells were incubated with DLPC (12 μM) for 24 h and APP expression was analyzed in total cell lysates by Western blotting. Histograms representing densitometry analysis of APP and the values are presented relative to total β-actin control and are expressed as mean±SEM of at least 3 independent experiments. *P<0.05 vs control.
as §1
Preparation of Phospholipid Vesicles—Phospholipid Vesicles in Phosphate-Buffered saline (PBS; 1 mg/mL) were prepared by sonication as previously described (8). […]
Western Blot Analysis—After incubation with drugs for the indicated times and doses, cells were washed twice with ice-cold PBS-T on ice. […] An equal amount of cell proteins were separated by 12% SDS-PAGE and were analyzed by Western blot using specific antibodies to TNFα, Aβ, APP, phospho-ERK1/2, ERK1/2, phospho-tau, tau, phospho-IκBα, IκBα, phospho-NF-κB and NF-κB. […] Band intensity was analyzed with the Alpha-Innotech Fluor Chem™ HD Imager.

tau = test: Agonist-induced tau phosphorylation (AT8) in SH-SY5Y cells, Western blot; type: cell-based, human
Method: as §1, §2, §3
The effect of pro-inflammatory and oxidative stress agonists on tau phosphorylation were also evaluated in SH-SY5Y cells.

NF-κB [6] = test: LPS and TNFα induction of NF-κB in CaCO-2 cells (unpublished observations); type: cell-based; conditions: CaCO-2 cell line; unpublished observations of the inventors
TLR-4 = test: LPS-induced TLR-4 expression in HepG2 cells, Western blot; type: cell-based, human; conditions: DLPC 12 μmol/L 30 min, LPS 5 μg/ml, 24 h
Method: as §4, with “min.” for “min”, “TLR-4” for “TNFα”
as §3

[7] = DLPC 12 μM 30 min, TNFα 10 ng/ml
[8] = 10 μM pretreatment 30 min, TNFα 10 ng/ml
[9] = inhibitor 10 μM pretreatment 30 min

With CCCCC/C=C\C/C=C\CCCCCCCC(=O)OC[C@H](COP(=O)([O-])OCC[N+](C)(C)C)OC(=O)CCCCCCC/C=C\C/C=C\CCCCC [DLPC, dilinoleoylphosphatidylcholine] the “TNFα-induced NF-κB phosphorylation” value (NF-κB [1]; [7]) was “inhibited TNFα-induced NF-κB phosphorylation”, the “block of the TNFα-induced increase in neuronal NF-κB phosphorylation” value (NF-κB [1]; DLPC 12 μM, 5-30 min post treatment with TNFα) was ~50% and the “LPS-induced increase in Aβ secretion” value (amyloid-β; DLPC 12 μM 30 min, LPS 100 ng/mL, 24 h) was “completely blocked”. The “decrease of basal secretion of Aβ” value (amyloid-β; DLPC 12 μM, 24 h conditioned media) was 65%, the “hydrogen peroxide induction of MAPK” value (ERK1/2; DLPC) was “block a hydrogen peroxide induction of MAPK” and the “TNFα-induced ERK1/2 phosphorylation” value (ERK1/2; DLPC 12 μM pre-incubated 30 min) was “block ERK1/2 phosphorylation for 30 min”. The NF-κB activation (Kupffer cells) was “decreases induction of TNFα secretion and NF-κB activation”, the “induction of TNFα secretion” value (Kupffer cells) was “decreases induction of TNFα secretion” and the “LPS-induced NF-κB phosphorylation / activation” value (NF-κB [2]; DLPC 12 μM 30 min, LPS 5 μg/ml, 24 h) was “inhibits LPS-induced IkBα and NF-κB phosphorylation after 24 h; also recorded: inhibits activation of NF-κB in HepG2 cells for up to 24 h”. The “TNFα-induced activation of NF-κB (p-NF-κB)” value (NF-κB [2]) was “block activation of NF-κB”, the IκBα degradation (IκBα [3]; DLPC 12 μM 30 min) was “prevented IkBα degradation” and the “TNFα-induced IκBα phosphorylation” value (IκBα [3]; DLPC 12 μM 30 min) was “blocked TNFα-induced IkBα phosphorylation”. The “LPS-induced increase in TNFα expression” value (TNFα) was “inhibits an LPS-induced increase in TNFα expression”, the “LPS-induced IκBα phosphorylation” value (IκBα [4]) was “inhibits LPS-induced IkBα and NF-κB phosphorylation after 24 h” and the “decrease of basal expression of amyloid precursor protein (APP)” value [5] was ~25%. The LPS-induced tau phosphorylation (tau; DLPC 12 μM 30 min, LPS 100 ng/ml) was “blocked the effect both agonists and gave rise to tau phosphoylation levels lower than control values by 30 min”, the TNFα-induced tau phosphorylation (tau; [7]) was “blocked the effect both agonists and gave rise to tau phosphoylation levels lower than control values by 30 min” and the “LPS and TNFα induction of NF-κB” value (NF-κB [6]) was “can block an LPS and TNFα induction of NF-κB”. For the same compound, the “LPS-induced increase in TLR-4 expression” value (TLR-4) was “blocks an LPS-induced increase in TLR-4 expression”.
For CCCCCCCC/C=C\CCCCCCCC(=O)OC[C@H](COP(=O)([O-])OCC[N+](C)(C)C)OC(=O)CCCCCCC/C=C\CCCCCCCC [DOPC, dioleoyl phosphatidylcholine, reference compound], the “TNFα-induced activation of NF-κB (p-NF-κB)” value (NF-κB [2]) was “no impact”.
In the case of CS/C(N)=C(C#N)/C(C#N)=C(\N)SC [U0124, reference compound], the NF-κB phosphorylation status (NF-κB [1]; [8]) was “no effect” and the “TNFα-induced ERK1/2 phosphorylation” value (ERK1/2; [9]) was “no effect”.
With N#CC(=C(/N)Sc1ccccc1N)/C(C#N)=C(\N)Sc1ccccc1N [U0126, reference compound] the “reduction of TNFα-induced NF-κB phosphorylation” value (NF-κB [1]; [8]) was ~50%, the “TNFα-induced ERK1/2 phosphorylation” value (ERK1/2; [9]) was “blocked the phosphorylation of ERK1/2” and the “reduction of TNFα-induced IκBα phosphorylation” value (IκBα [3]; 10 μM pretreatment 30 min) was ~50%. For the same compound, the “TNFα-induced phosphorylation of tau (AT8)” value (tau; U0126 10 μM pretreatment 30 min, TNFα 10 ng/ml, 5 min) was “completely blocked”.
